Assay results published in patent publication US12458630B2, “Combination therapy for cancer” (The Regents of the University of California, priority 2020, dated 2025).
Entries after “also recorded” stand apart in the source; their conditions may differ.

Columns and labels:
KC6141 cells = assay: TMR-DEX macropinosome uptake assay; assay type: cell-based, mouse; settings: WT and IKKα-KD KC6141 cells
Protocol: Cell imaging. Immunostaining was performed as described^44. Cells were cultured on coverslips and fixed in 4% PFA for 10 min at room temperature. After washing twice in PBS, cells were incubated in PBS containing 10% FBS to block nonspecific sites of antibody adsorption. The cells were then incubated with the appropriate primary antibodies (diluted 1:100) and secondary antibodies (diluted 1:500) in PBS containing 10% FBS with or without 0.1% saponin. For cell macropinosome visualization, 24 hrs after seeding, the cells were serum starved for 18 hrs. Macropinosomes were marked using a high-molecular-mass (70 KD) TMR-Dextran (Invitrogen)-uptake assay, wherein TMR-DEX was added to serum-free medium at a final concentration of 1 mg/ml for 30 min at 37° C. At the end of the incubation period, the cells were rinsed five times in cold PBS and immediately fixed in 4% PFA. For tissue macropinosome visualization^45, fresh pancreata were cut into pieces with an approximate 5-mm cuboidal shape. […]
Quantification and statistics. To quantify the number of LC3 puncta, a total of 30 cells were recorded and analyzed using the LAS X measurement program on the TCS SPE Leica. Macropinosomes were quantified by using the ‘Analyze Particles’ feature in ImageJ (National Institutes of Health). […]

[1] = test system: parental and IKKα KO MIA PaCa-2 tumors; assay: Heterotopic s.c. xenografts in nude mice; assay type: in vivo, mouse
Protocol: To evaluate the effects of MP on tumor growth in the autochthonous model, Kras^G12D;Ikkα^Δpan mice, at 4 weeks of age, were treated with vehicle or 10 mg/kg EIPA (Sigma) by intraperitoneal injection every other day for 1 month. After that, surgically removed pancreata were weighed and used for further analysis. To evaluate the effects of MP on heterotopic xenografts, female homozygous BALB/c Nu/Nu nude mice were injected subcutaneously (s.c.) in both flanks at 7 weeks of age with 10^6 parental and IKKα KO MIA PaCa-2 cells mixed at a 1:1 dilution with BD Matrigel (BD Biosciences) in a total volume of 100 μl. Mice were treated with EIPA (7.5 mg/kg) for 15 days when tumors attained an average volume of 50-100 mm^3. As a control, animals treated with vehicle (DMSO in PBS) were used. Volumes (1/2×(width^2×length)) of s.c. tumors were calculated on the basis of measurements using digital calipers after 15 days of treatment. […] Tumor volumes were calculated as above.
In some embodiments, to evaluate the effects of MP on tumor growth or survival in the autochthonous model, Kras^G12D;Ikkα^ΔPEC mice, at 4 weeks of age, were treated with vehicle or 10 mg/kg EIPA (Sigma) by i.p. injection every other day for 1 month. […] Volumes (1/2×(width^2×length)) of s.c. tumors were calculated on the basis of measurements using digital calipers after 15 days of treatment. […] Tumor volumes were calculated as above.

How did the “MP (macropinosomes)” value (KC6141 cells) turn out when `CCN(c1nc(N)c(C(=O)N=C(N)N)nc1Cl)C(C)C` [EIPA, 5-(N-ethyl-N-isopropyl) amiloride] was run?
Its value is “inhibited MP”.

And the “growth of IKKα-deficient tumors / their EIPA sensitivity vs parental” value ([1]; IKKα KO (IKKα^Δ) MIA PaCa-2 tumors, EIPA 7.5 mg/kg for 15 days)?
Its value is “strongly inhibited; also recorded: more EIPA sensitive”.

And the tumor size ([1]; parental and IKKα KO MIA PaCa-2 tumors, EIPA 7.5 mg/kg for 15 days vs vehicle)?
The tumor size was “reduced tumor size in both groups; also recorded: significantly suppressed”.
